Laboratory results from ChEMBL document CHEMBL1201862, “PubChem BioAssay data set” (2004).
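Grown in 96-well plates, cells were treated for 48 hours with each compound at five concentrations. Insufficient inhibition: endpoint recorded as highest concentration tested. GI50 marks 50% less growth.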 Active and inactive are the calls of the source. Rule as the data show it: active = GI50 up to about 1.1 µM and inactive = higher.

What was measured:
Assay in all cases: growth of human tumour cells (NCI), 48 h
786-0 = test system: 786-0
A498 = test system: A498
A549 = test system: A549
ACHN = test system: ACHN
BT-549 = test system: BT-549
CAKI-1 = test system: CAKI-1
CCRF-CEM = test system: CCRF-CEM
COLO 205 = test system: COLO 205
DU-145 = test system: DU-145
EKVX = test system: EKVX
HCC 2998 = test system: HCC 2998
HCT-116 = test system: HCT-116
HCT-15 = test system: HCT-15
HL-60 = test system: HL-60
HT-29 = test system: HT-29
IGROV-1 = test system: IGROV-1
K562 = test system: K562
KM12 = test system: KM12
LOX IMVI = test system: LOX IMVI
M14 = test system: M14
MCF7 = test system: MCF7
MDA-MB-231 = test system: MDA-MB-231
MDA-MB-435 = test system: MDA-MB-435
MDA-N = test system: MDA-N
MOLT-4 = test system: MOLT-4
Malme-3M = test system: Malme-3M
NCI-H226 = test system: NCI-H226
NCI-H23 = test system: NCI-H23
NCI-H460 = test system: NCI-H460
NCI-H522 = test system: NCI-H522
NCI/ADR-RES = test system: NCI/ADR-RES
OVCAR-3 = test system: OVCAR-3
OVCAR-4 = test system: OVCAR-4
OVCAR-5 = test system: OVCAR-5
OVCAR-8 = test system: OVCAR-8
PC-3 = test system: PC-3
RPMI-8226 = test system: RPMI-8226
RXF 393 = test system: RXF 393
SF-268 = test system: SF-268
SF-295 = test system: SF-295
SF-539 = test system: SF-539
SK-MEL-28 = test system: SK-MEL-28
SK-MEL-2 = test system: SK-MEL-2
SK-MEL-5 = test system: SK-MEL-5
SK-OV-3 = test system: SK-OV-3
SN12C = test system: SN12C
SNB-19 = test system: SNB-19
SNB-75 = test system: SNB-75
SR = test system: SR
SW-620 = test system: SW-620
T47D = test system: T47D
TK-10 = test system: TK-10
U-251 = test system: U-251
UACC-257 = test system: UACC-257
UACC-62 = test system: UACC-62
UO-31 = test system: UO-31
HOP-62 = test system: HOP-62
HOP-92 = test system: HOP-92

Measured: GI50

Oc1cccc(-c2nc3cc(F)ccc3s2)c1
11.2 µM: HCT-15
inactive: 786-0 19.5 µM | A549 23.6 µM | ACHN 23.8 µM | BT-549 16.9 µM | CAKI-1 15.1 µM | CCRF-CEM 22.3 µM | COLO 205 15.1 µM | DU-145 18.7 µM | EKVX 3.84 µM | HCC 2998 9.02 µM | HCT-116 21.3 µM | HL-60 23.2 µM | HT-29 16.6 µM | IGROV-1 2.34 µM | K562 27.5 µM | KM12 11.9 µM | LOX IMVI 15.6 µM | M14 18.1 µM | MCF7 1.6 µM | MDA-MB-231 15.9 µM | MDA-MB-435 23.9 µM | MDA-N 19.4 µM | MOLT-4 20.5 µM | Malme-3M 16.2 µM | NCI-H226 9.46 µM | NCI-H23 16.6 µM | NCI-H460 18.6 µM | NCI-H522 10.6 µM | NCI/ADR-RES 17.4 µM | OVCAR-3 11.5 µM | OVCAR-4 9.42 µM | OVCAR-5 21.4 µM | OVCAR-8 20.6 µM | PC-3 24.2 µM | RPMI-8226 20.3 µM | RXF 393 25.9 µM | SF-268 23.9 µM | SF-295 20.6 µM | SF-539 19.4 µM | SK-MEL-28 19.2 µM | SK-MEL-2 19.8 µM | SK-MEL-5 10.7 µM | SK-OV-3 16.7 µM | SN12C 23.4 µM | SNB-19 24.4 µM | SNB-75 11.1 µM | SR 18 µM | SW-620 22 µM | TK-10 12.4 µM | U-251 24.5 µM | UACC-257 13.9 µM | UACC-62 14.5 µM | UO-31 14.5 µM
active: A498 1.11 µM | T47D 0.225 µM

COCCCN(Cc1cc(OC)c(OC)c(OC)c1)C(=S)Nc1cccc(Cl)c1
inactive: 786-0 26.5 µM | A498 28.3 µM | A549 29 µM | ACHN 28.6 µM | BT-549 22.6 µM | CAKI-1 21.5 µM | CCRF-CEM 25.3 µM | COLO 205 33.8 µM | DU-145 37.7 µM | EKVX 12.3 µM | HCC 2998 39.1 µM | HCT-116 17.2 µM | HL-60 17.7 µM | HOP-62 42.6 µM | HOP-92 20.2 µM | HT-29 18.7 µM | IGROV-1 34.4 µM | K562 15.7 µM | KM12 23.1 µM | LOX IMVI 21.5 µM | M14 23.7 µM | MCF7 21.7 µM | MDA-MB-231 26 µM | MDA-MB-435 20.9 µM | MDA-N 19.2 µM | MOLT-4 13.4 µM | NCI-H460 30.1 µM | NCI/ADR-RES 21.1 µM | OVCAR-3 41.6 µM | OVCAR-4 24.4 µM | OVCAR-5 20.8 µM | OVCAR-8 25 µM | PC-3 25.1 µM | RPMI-8226 14.9 µM | RXF 393 26.8 µM | SF-268 19.9 µM | SF-295 31.8 µM | SF-539 42.8 µM | SK-MEL-28 27.5 µM | SK-MEL-2 23.1 µM | SK-MEL-5 13.9 µM | SK-OV-3 41 µM | SN12C 24.4 µM | SNB-19 43.7 µM | SNB-75 25.3 µM | SW-620 31.8 µM | T47D 12.2 µM | TK-10 47 µM | U-251 31.8 µM | UACC-257 19.6 µM | UACC-62 15.4 µM | UO-31 26.1 µM
16.7 µM: HCT-15
